Some test systems named below: NCI/ADR-RES ovarian; PC-3 prostate; MOLT-4 leukemia; NCI-H23 lung; M14 melanoma; EKVX NSCLC; A549 NSCLC; BT-549 breast; CCRF-CEM leukemia; MDA-MB-231 breast.
Common to all, as to assay: NCI tumour cell line growth inhibition, 48 h

Values joined by “and” are separate entries in the source; they are usually repeats but may differ in a detail not shown here. Equal values may be shown once.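 Exposure lasted 48 hours, with cells grown in 96-well plates and compounds tested at five concentrations. Abbreviation: GI50, concentration required for 50% inhibition of growth. TGI marks complete inhibition of growth.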 A value given as a limit tells only on which side of the number the result lay.

Turning to `CCN(CC)CCOC(COc1cc(C)cc(C)c1)COc1cc(C)cc(C)c1`, the GI50 in the experiment on NCI/ADR-RES ovarian is 3.34 µM; in the experiment with PC-3 prostate it was 2600 nM; with MOLT-4 leukemia it was 2080 nM; in the experiment with NCI-H23 lung, 2360 nM; with M14 melanoma, 1350 nM; in the experiment on EKVX NSCLC, 2910 nM. Also, the GI50 in the experiment on A549 NSCLC was 4.56 µM; in the experiment on BT-549 breast, 6120 nM; in the experiment with CCRF-CEM leukemia, 2250 nM. For the same molecule, the TGI with NCI/ADR-RES ovarian worked out at 14.6 µM; in the experiment with PC-3 prostate it was 10100 nM; in the experiment with MOLT-4 leukemia it was 5.73 µM; in the experiment with NCI-H23 lung it was 14.7 µM; in the experiment with M14 melanoma, 3.06 µM; with EKVX NSCLC, 11.8 µM. The TGI in the experiment with A549 NSCLC stood at 16.9 µM; in the experiment with BT-549 breast, 20.7 µM; with CCRF-CEM leukemia it was 8.24 µM.
As for `O=C(O)CNc1ccc2c(c1)Cc1cc(Br)ccc1-2`, the TGI with NCI/ADR-RES ovarian is above 63.3 µM; in the experiment on PC-3 prostate, above 100000 nM; in the experiment on NCI-H23 lung, 49.3 µM; in the experiment with M14 melanoma it was above 77.1 µM; in the experiment with EKVX NSCLC, 49.7 µM; in the experiment with A549 NSCLC it was above 81.3 µM. Moreover, the TGI was 58.6 µM with BT-549 breast, above 68.9 µM in the experiment with MDA-MB-231 breast and above 100 µM in the experiment on CCRF-CEM leukemia.
As to `C/C=C/C=C/c1cc2cc3c(c(O)c2c(=O)[nH]1)C1(CC3)C(O)=c2c(=O)c3c(=O)cc(OC)c(=O)c=3c(=O)c2=C1O` (configuration not stated), the TGI in the experiment with NCI/ADR-RES ovarian was 37.9 µM; in the experiment with PC-3 prostate it was 654 nM; in the experiment on NCI-H23 lung, 10.1 µM and 8.27 µM; in the experiment on M14 melanoma, 3.24 µM and 9.06 µM; in the experiment on EKVX NSCLC, 3 µM and 12.2 µM; in the experiment with A549 NSCLC, 4.69 µM and 13.6 µM. The TGI in the experiment on MDA-MB-231 breast was 4.15 µM; in the experiment with CCRF-CEM leukemia it was 1.13 µM and 11.2 µM. In addition, the GI50 is 315 nM and 977 nM in the experiment on M14 melanoma; 188 nM and 1120 nM in the experiment on EKVX NSCLC; 0.183 µM and 1.4 µM in the experiment with A549 NSCLC.
Regarding `Cc1c(Cl)ccc2c1NC(=O)C2(O)CC(=O)c1ccc(Cl)cc1` (configuration not stated), the TGI is 63.7 µM with MOLT-4 leukemia; above 100 µM in the experiment with NCI-H23 lung; above 100 µM in the experiment on M14 melanoma; above 100 µM in the experiment with EKVX NSCLC; above 100 µM in the experiment with A549 NSCLC; 53.5 µM in the experiment on CCRF-CEM leukemia.
Turning to `COC(=O)[C@@]12OC[C@]34[C@H]([C@@H](O)[C@@H]1O)[C@@]1(C)CC(=O)C(O)=C(C)[C@@H]1C[C@H]3OC(=O)[C@H](OC(=O)/C=C(\C)C(C)C)[C@@H]24`, the GI50 in the experiment with PC-3 prostate was 20 nM; with BT-549 breast it was 26.2 nM; in the experiment with MDA-MB-231 breast, 22.8 nM; in the experiment on CCRF-CEM leukemia, 2.24 nM. The TGI was 51.2 nM and 12.8 nM and 28 nM in the experiment on PC-3 prostate; 0.015 µM and 0.0688 µM in the experiment on NCI-H23 lung; 0.0109 µM in the experiment on M14 melanoma; 0.0517 µM and 0.0283 µM and 0.0316 µM with EKVX NSCLC; 0.0168 µM and < 0.0163 µM and 0.0473 µM in the experiment with A549 NSCLC; 0.06 µM and 0.0156 µM and 0.0214 µM in the experiment with BT-549 breast. Moreover, the TGI was 0.0822 µM and 0.0757 µM in the experiment with MDA-MB-231 breast; 0.0184 µM and 0.182 µM with CCRF-CEM leukemia.
Regarding `C[N+](C)(C)CC1CCC(C[N+](C)(C)C)C1=NO` (configuration not stated), the TGI with MOLT-4 leukemia, in the experiment on NCI-H23 lung, in the experiment with M14 melanoma, with EKVX NSCLC, in the experiment with A549 NSCLC and in the experiment with CCRF-CEM leukemia was above 100 µM throughout.
As to `COc1cc(C2CC(c3ccccc3)=NN2C=O)ccc1Oc1ccnc2cc(Cl)ccc12` (configuration not stated), the GI50 was 3.23 µM in the experiment on NCI/ADR-RES ovarian; 2800 nM in the experiment on PC-3 prostate; 4820 nM with NCI-H23 lung; 5830 nM in the experiment on M14 melanoma; 3670 nM in the experiment on EKVX NSCLC; 8.87 µM in the experiment with A549 NSCLC. For the same molecule, the GI50 was 2240 nM in the experiment with BT-549 breast and 28500 nM in the experiment on MDA-MB-231 breast. Besides, the TGI in the experiment on NCI/ADR-RES ovarian was above 100 µM; in the experiment with PC-3 prostate, above 100000 nM; with NCI-H23 lung, above 100 µM; with M14 melanoma, above 100 µM; in the experiment on EKVX NSCLC, above 100 µM; with A549 NSCLC, above 100 µM. For the same molecule, the TGI is 14.1 µM with BT-549 breast and above 100 µM in the experiment on MDA-MB-231 breast.
Turning to `CCCC1C[C@H]2CCCCN2[C@H]2CCCN12` (some centres not stated), the TGI with MOLT-4 leukemia was above 100 µM; in the experiment with NCI-H23 lung, above 100 µM; in the experiment on M14 melanoma, above 100 µM; in the experiment on EKVX NSCLC, above 100 µM; in the experiment on A549 NSCLC, above 100 µM; with CCRF-CEM leukemia, above 68.6 µM.
Consider `Fc1ccccc1CN1COc2c(cc(Cl)c3cccnc23)C1`, for which the TGI in the experiment with NCI/ADR-RES ovarian is 0.54 µM; in the experiment with PC-3 prostate, 10600 nM; in the experiment with MOLT-4 leukemia it was 0.758 µM; in the experiment with NCI-H23 lung, 9.31 µM; in the experiment on M14 melanoma it was 12 µM; with EKVX NSCLC, 2.72 µM. Also, the TGI in the experiment with A549 NSCLC was found to be 10.9 µM; in the experiment on MDA-MB-231 breast, 4.3 µM.
On to `OC12CCC3(OC4CCCCO4)c4ccccc4C3C1c1ccccc12` (configuration not stated), for which the TGI in the experiment with MOLT-4 leukemia, in the experiment with NCI-H23 lung, with M14 melanoma, in the experiment on EKVX NSCLC, in the experiment with A549 NSCLC and in the experiment with CCRF-CEM leukemia was above 100 µM in each case.
As to `O=C1C(Cl)=C(Nc2ccc(S(=O)(=O)c3ccc(NC4=C(Cl)C(=O)c5ccccc5C4=O)cc3)cc2)C(=O)c2ccccc21`, the GI50 with NCI/ADR-RES ovarian was 3.68 µM; in the experiment with MOLT-4 leukemia, 1870 nM; in the experiment with NCI-H23 lung it was 1810 nM; in the experiment with M14 melanoma, 1820 nM; with EKVX NSCLC, 2360 nM; in the experiment on A549 NSCLC it was 5.71 µM. For the same molecule, the GI50 in the experiment on BT-549 breast was 1650 nM; with MDA-MB-231 breast it was 1610 nM; in the experiment on CCRF-CEM leukemia, 1900 nM. For the same molecule, the TGI in the experiment on NCI/ADR-RES ovarian is 35.2 µM; in the experiment with MOLT-4 leukemia, 5.86 µM; in the experiment on NCI-H23 lung, 3.63 µM; with M14 melanoma, 3.26 µM; with EKVX NSCLC, 9.07 µM; with A549 NSCLC, 38.8 µM. In addition, the TGI in the experiment with BT-549 breast is 3.24 µM; with MDA-MB-231 breast it was 3.51 µM; in the experiment with CCRF-CEM leukemia, above 100 µM.
Turning to `CC1NOC(=O)C1N=Nc1cccc(Cl)c1` (configuration not stated), the TGI is 86.7 µM with MOLT-4 leukemia; above 100 µM with NCI-H23 lung; above 100 µM in the experiment with M14 melanoma; above 100 µM with EKVX NSCLC; above 100 µM with A549 NSCLC; 57.7 µM in the experiment on CCRF-CEM leukemia.

The values are drawn from PubChem BioAssay (NCI).
